What was measured:
[1] = Solubility of pyridoxine tripropionate in vegetable oil / lipophilic phases
From the text: 50 Gew% Pyridoxintripropionat werden vorgelegt und in 50 Gew% Pflanzenöl unter starkem Rühren gelöst.

[2] = direct use in ointments, creams and other skin preparations; no test described; cited from earlier work
[3] = cited from earlier work; for Löslichkeit in Fetten: Kummerow, J.Am Oil Chem. Soc. 33 1956, 116

CCC(=O)OCc1cnc(C)c(OC(=O)CC)c1COC(=O)CC [Pyridoxintripropionat]
Lösung in Pflanzenöl ([1]; 50 Gew% Pyridoxintripropionat in 50 Gew% Pflanzenöl, dissolved with vigorous stirring): homogene Lösung
löslich in Pflanzenöl ([1]; in Pflanzenöl): ≤ 50 Gew.%
Vitamin B₆ Wirksamkeit [2]: volle
Löslichkeit in Fetten ([3]; Sakuragi): beinahe unlöslich

CC(=O)OCc1cnc(C)c(OC(C)=O)c1COC(C)=O [Pyridoxintriacetat]
Löslichkeit in Fetten ([3]; Sakuragi): beinahe unlöslich

Cc1ncc(CO)c(CO)c1O.Cl [Pyridoxin-hydrochlorid]
Löslichkeit in unpolaren Flüssigkeiten ([3]; in unpolaren Flüssigkeiten, background statement): praktisch unlöslich

Pyridoxinoctanoat
Löslichkeit in Pflanzenölen ([3]; in Pflanzenölen, Sakuragi, Kummerow 1956): ≤ 1%

CCCCCCCCCCCCCCCC(=O)OCc1cnc(C)c(OC(=O)CCCCCCCCCCCCCCC)c1COC(=O)CCCCCCCCCCCCCCC [Pyridoxintripalmitat]
Löslichkeit in Olivenöl ([3]; bei 3 °C in Olivenöl, Sakuragi, Kummerow 1956): 0,1%

Reference: EP0678293A2, “Composition containing pyridoxine ester, process for the preparation and use thereof” (F. HOFFMANN-LA ROCHE AG, priority 1994, dated 1995)
